From patent US9827219B2, “Compositions and methods for lowering levels of high-sensitivity C-reactive protein (HS-CRP) in a subject” (priority 2012, dated 2017) come the findings set out here.

What all share (assay type): in vivo, human
In one experiment the test system is Ox-LDL. Kind of experiment: MARINE study, oxidized LDL. Particulars: MARINE ITT, week 12. The text has this:
(§1) Parameters (a)-(y) can be measured in accordance with any clinically acceptable methodology. For example, triglycerides, total cholesterol, HDL-C and fasting blood sugar can be sample from serum and analyzed using standard photometry techniques. VLDL-TG, LDL-C and VLDL-C can be calculated or determined using serum lipoprotein fractionation by preparative ultracentrifugation and subsequent quantitative analysis by refractometry or by analytic ultracentrifugal methodology. Apo A1, Apo B and hsCRP can be determined from serum using standard nephelometry techniques. Lipoprotein (a) can be determined from serum using standard turbidimetric immunoassay techniques. LDL particle number and particle size can be determined using nuclear magnetic resonance (NMR) spectrometry. Remnants lipoproteins and LDL-phospholipase A2 can be determined from EDTA plasma or serum and serum, respectively, using enzymatic immunoseparation techniques. Oxidized LDL, intercellular adhesion molecule-1 and interleukin-2 levels can be determined from serum using standard enzyme immunoassay techniques. These techniques are described in detail in standard textbooks, for example Tietz Fundamentals of Clinical Chemistry, 6th Ed. (Burtis, Ashwood and Borter Eds.), WB Saunders Company. […]

In another experiment the test system is ICAM-1. The experiment can be described thus: MARINE study (fasting TG ≧500 mg/dL), ICAM-1. Particulars: MARINE ITT, week 12.
Source text: as §1

The subject of a further experiment is IL-6. The experiment can be described thus: ANCHOR study, IL-6. Particulars: ANCHOR ITT, week 12. The protocol:
A multi-center, placebo-controlled, randomized, double-blind, 12-week study was performed to evaluate the efficacy and safety of >96% E-EPA in patients with fasting triglyceride levels ≧200 mg/dl and <500 mg/dl despite statin therapy (the mean of two qualifying entry values needed to be ≧185 mg/dl and at least one of the values needs to be ≧200 mg/dl). The primary objective of the study was to determine the efficacy of >96% E-EPA 2 g daily and 4 g daily, compared to placebo, in lowering fasting TG levels in patients with high risk for cardiovascular disease and with fasting TG levels ≧200 mg/dL and <500 mg/dL, despite treatment to LDL-C goal on statin therapy.
The population for this study was men and women >18 years of age with a body mass index ≦45 kg/m^2 with fasting TG levels greater than or equal to 200 mg/dl and less than 500 mg/dl and on a stable does of statin therapy (with or without ezetimibe). The statin must have been atorvostatin, rosuvastatin or simvastatin. The dose of statin must have been stable for ≧4 weeks prior to the LDL-C/TG baseline qualifying measurement for randomization. The statin dose was optimal such that the patients are at their LDL-C goal at the LDL-C/TG baseline qualifying measurements. The same statin at the same dose was continued until the study ended.
Approximately 648 patients were randomized at approximately 80 centers in the U.S. The study was a 18- to 20-week, Phase 3, multi-center study consisting of 2 study periods: (1) A 6- to 8-week screening period that included a diet and lifestyle stabilization, a non-statin lipid-altering treatment washout, and an LDL-C and TG qualifying period and (2) A 12-week, double-blind, randomized, placebo-controlled treatment period.
After confirmation of qualifying fasting LDL-C and TG values, eligible patients entered a 12-week, randomized, double-blind treatment period. At Visit 4 (Week 0), patients were randomly assigned to 1 of the following treatment groups: • >96% E-EPA 2 g daily, • >96% E-EPA 4 g daily, or • Placebo.
Approximately 216 patients per treatment group were randomized in this study. Stratification was by type of statin (atorvastatin, rosuvastatin or simvastatin), the presence of diabetes, and gender. The lower-efficacy statin regimen included administration of 5-10 mg of simvastatin per day; the medium-efficacy statin regimens included administration of 5-10 mg rosuvastatin per day, 10-20 mg of atorvastatin per day, 20-40 mg of simvastatin per day, or 10-20 mg of simvastatin and 5-10 mg of ezetimibe per day; and the higher-efficacy statin regimens included administration of 20-40 mg of rosuvastatin per day, 40-80 mg of atorvastatin per day, 80 mg of simvastatin per day, or 40-80 mg of simvastatin and 5-10 mg of ezetimibe per day. […]

Molecules are shown by their SMILES.

Take `CC/C=C\C/C=C\C/C=C\C/C=C\C/C=C\CCCC(=O)OCC` [AMR101, all-cis eicosa-5,8,11,14,17-pentaenoic acid ethyl ester]: the “Ox-LDL change from baseline (median)” value in the experiment on Ox-LDL (2 g/day) is given as 0.4%; with Ox-LDL (4 g/day) it was −3.0%. In addition, the “ICAM-1 change from baseline (median)” value is given as −0.4% with ICAM-1 (2 g/day) and −0.9% in the experiment on ICAM-1 (4 g/day). Further, the “IL-6 change from baseline (median)” value came to 6.9% in the experiment on IL-6 (2 g/day) and 3.1% in the experiment on IL-6 (4 g/day). Moreover, the “IL-6 end-of-treatment value (median)” value in the experiment with IL-6 (2 g/day) was 2.7 pg/mL; in the experiment with IL-6 (4 g/day) it was 2.6 pg/mL.
